Source: patent publication US8088925B2, “Heteroaryl-carboxylic acid (sulfamoyl alkyl) amide-derivatives as factor Xa inhibitors” (priority 2005, dated 2012)
pKi: −log10 of the molar value.

Molecular target: T1, human factor Xa (Homo sapiens, UniProt P00742)
T1 construct: human factor Xa; purchased Enzyme Research Laboratories, Inc; South Bend, Ind
Test: Factor Xa assay (chromogenic, purified enzyme)
Assay type: biochemical
Conditions: inhibition constant for factor Xa; chromogenic substrate S-2765 140 μM, enzyme 0.5 nM, 25° C.; Ki=IC50/{1+(substrate concentration/Km)}; read-out: Ki (FXa)
Procedure: Purified enzymes were used in chromogenic assays.
The assay was performed by pre-incubating the compound of formula I or Ia plus enzyme for 10 min. Then the assay was initiated by adding substrate to obtain a final volume of 100 μl. The initial velocity of chromogenic substrate hydrolysis was measured by the change in absorbance at 405 nm using a Bio-tek Instruments kinetic plate reader (Ceres UV900HDi) at 25° C. during the linear portion of the time course (usually 1.5 min after addition of substrate).

T1 sequence (P00742 235-488 limits assumed): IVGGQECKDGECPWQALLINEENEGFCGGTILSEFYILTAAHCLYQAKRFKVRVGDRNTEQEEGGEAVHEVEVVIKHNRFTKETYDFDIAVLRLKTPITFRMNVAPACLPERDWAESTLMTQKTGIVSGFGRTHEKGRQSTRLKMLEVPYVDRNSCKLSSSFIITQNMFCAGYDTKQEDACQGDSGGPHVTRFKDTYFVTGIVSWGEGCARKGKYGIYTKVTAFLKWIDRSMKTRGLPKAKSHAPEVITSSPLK
T1 sequence (P00742 41-179 partner limits assumed): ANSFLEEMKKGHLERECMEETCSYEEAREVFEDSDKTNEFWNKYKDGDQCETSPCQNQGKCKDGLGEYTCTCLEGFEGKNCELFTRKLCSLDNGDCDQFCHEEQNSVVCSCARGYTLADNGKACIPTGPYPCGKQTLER

CC(C)N1CCC(N(Cc2nnc(C3CC3)s2)S(=O)(=O)CCNC(=O)c2ccc(Cl)s2)CC1 [Example 33, 5-Chloro-thiophene-2-carboxylic acid {2-[(5-cyclopropyl-[1,3,4]thiadiazol-2-ylmethyl)-(1-isopropyl-piperidin-4-yl)-sulfamoyl]-ethyl}-amide]
pKi: 8.22

CC(C)N1CCC(N(CC(N)=O)S(=O)(=O)CCNC(=O)c2ccc(Cl)s2)CC1 [Example 20, 5-Chloro-thiophene-2-carboxylic acid {2-[carbamoylmethyl-(1-isopropyl-piperidin-4-yl)-sulfamoyl]-ethyl}-amide]
pKi: 8.52

CC(C)N1CCC(NS(=O)(=O)CCCNC(=O)c2ccc(Cl)s2)CC1 [Example 29, 5-Chloro-thiophene-2-carboxylic acid [3-(1-isopropyl-piperidin-4-ylsulfamoyl)-propyl]-amide]
pKi: 6.40

CC(C)N1CCC(N(CCO)S(=O)(=O)CCNC(=O)c2ccc(Cl)s2)CC1 [Example 16, 5-Chloro-thiophene-2-carboxylic acid {2-[(2-hydroxy-ethyl)-(1-isopropyl-piperidin-4-yl)-sulfamoyl]-ethyl}-amide]
pKi: 8.40

CC(C)N1CCC(NS(=O)(=O)CCNC(=O)c2ccc(Br)s2)CC1 [Example 9, 5-Bromo-thiophene-2-carboxylic acid[2-(1-isopropyl-piperidin-4-ylsulfamoyl)-ethyl]-amide]
pKi: 8.22

CC(C)N1CCC(NS(=O)(=O)CCNC(=O)c2ccc(Br)o2)CC1 [Example 11, 5-Bromo-furan-2-carboxylic acid [2-(1-isopropyl-piperidin-4-ylsulfamoyl)-ethyl]-amide]
pKi: 5.50

CC(=O)N(C1CCN(C(C)C)CC1)S(=O)(=O)CCNC(=O)c1ccc(Cl)s1 [Example 25, 5-Chloro-thiophene-2-carboxylic acid {2-[acetyl-(1-isopropyl-piperidin-4-yl)-sulfamoyl]-ethyl}-amide]
pKi: 8.52

Cc1cc(CN(C2CCN(C(C)C)CC2)S(=O)(=O)CCNC(=O)c2ccc(Cl)s2)no1 [Example 21, 5-Chloro-thiophene-2-carboxylic acid {2-[(1-isopropyl-piperidin-4-yl)-(5-methyl-isoxazol-3-ylmethyl)-sulfamoyl]-ethyl}-amide]
pKi: 8.40

O=C(NCCS(=O)(=O)NN1CCN(Cc2ccccc2)CC1)c1ccc(Cl)s1 [Example 8, 5-Chloro-thiophene-2-carboxylic acid [2-(4-benzyl-piperazin-1-ylsulfamoyl)-ethyl]-amide]
pKi: 5.96

CC(C)N1CCC(N(Cc2cc(-c3ccc(Cl)s3)on2)S(=O)(=O)CCNC(=O)c2ccc(Cl)s2)CC1 [Example 32, 5-Chloro-thiophene-2-carboxylic acid {2-[[5-(5-chloro-thiophen-2-yl)-isoxazol-3-ylmethyl]-(1-isopropyl-piperidin-4-yl)-sulfamoyl]-ethyl}-amide]
pKi: 8.22

O=C(NCCS(=O)(=O)NC1CNC1)c1ccc(Cl)s1 [Example 6, 5-Chloro-thiophene-2-carboxylic acid[2-(azetidin-3-ylsulfamoyl)-ethyl]-amide]
pKi: 4.69

Cc1ccc(C(=O)NCCS(=O)(=O)NC2CCN(C(C)C)CC2)s1 [Example 10, 5-Methyl-thiophene-2-carboxylic acid [2-(1-isopropyl-piperidin-4-ylsulfamoyl)-ethyl]-amide]
pKi: 6.59

CC(C)N1CCC(NS(=O)(=O)CCNC(=O)c2ccc(Cl)cc2)CC1 [Example 12, 4-Chloro-N-[2-(1-isopropyl-piperidin-4-ylsulfamoyl)-ethyl]-benzamide]
pKi: 6.24

CC(C)N1CCC(N(Cc2cccnc2)S(=O)(=O)CCNC(=O)c2ccc(Cl)s2)CC1 [Example 22, 5-Chloro-thiophene-2-carboxylic acid {2-[(1-isopropyl-piperidin-4-yl)-pyridin-3-ylmethyl-sulfamoyl]-ethyl}-amide]
pKi: 8.10

CC(C)N1CCC(NS(=O)(=O)C(C)CNC(=O)c2ccc(Cl)s2)CC1 (racemic) [Example 26, 5-Chloro-thiophene-2-carboxylic acid [2-(1-isopropyl-piperidin-4-ylsulfamoyl)-propyl]-amide]
pKi: 7.89

O=C(NCCS(=O)(=O)NC1CCN(C2CC2)CC1)c1ccc(Cl)s1 [Example 2, 5-Chloro-thiophene-2-carboxylic acid [2-(1-cyclopropyl-piperidin-4-ylsulfamoyl)-ethyl]-amide]
pKi: 6.78

CC(C)N1CCC(NS(=O)(=O)CC(C)(C)NC(=O)c2ccc(Cl)s2)CC1 [Example 28, 5-Chloro-thiophene-2-carboxylic acid [2-(1-isopropyl-piperidin-4-ylsulfamoyl)-1,1-dimethyl-ethyl]-amide]
pKi: 5.47

CCCNC(=O)N(C1CCN(C(C)C)CC1)S(=O)(=O)CCNC(=O)c1ccc(Cl)s1 [Example 24, 5-Chloro-thiophene-2-carboxylic acid {2-[(1-isopropyl-piperidin-4-yl)-propylaminocarbonyl-sulfamoyl]-ethyl}-amide]
pKi: 8.40

CC(C)N1CCC(N(Cc2nccs2)S(=O)(=O)CCNC(=O)c2ccc(Cl)s2)CC1 [Example 23, 5-Chloro-thiophene-2-carboxylic acid {2-[(1-isopropyl-piperidin-4-yl)-thiazol-2-ylmethyl-sulfamoyl]-ethyl}-amide]
pKi: 8.22

CC(C)N1CCC(NS(=O)(=O)CCNC(=O)c2cccc(Cl)c2)CC1 [Example 14, 3-Chloro-N-[2-(1-isopropyl-piperidin-4-ylsulfamoyl)-ethyl]-benzamide]
pKi: 4.71

CC(C)N1CCC(NS(=O)(=O)C[C@H](CO)NC(=O)c2ccc(Cl)s2)CC1 [Example 27, 5-Chloro-thiophene-2-carboxylic acid [(S)-1-hydroxymethyl-2-(1-isopropyl-piperidin-4-ylsulfamoyl)-ethyl]-amide]
pKi: 5.90

COCCN(C1CCN(C(C)C)CC1)S(=O)(=O)CCNC(=O)c1ccc(Cl)s1 [Example 15, 5-Chloro-thiophene-2-carboxylic acid {2-[(1-isopropyl-piperidin-4-yl)-(2-methoxy-ethyl)-sulfamoyl]-ethyl}-amide]
pKi: 8.30

CC(C)N1CCC(N2C(=O)CC(CNC(=O)c3ccc(Cl)s3)S2(=O)=O)CC1 (racemic) [Example 31, 5-Chloro-thiophene-2-carboxylic acid [2-(1-isopropyl-piperidin-4-yl)-1,1,3-trioxo-1λ^6-isothiazolidin-5-ylmethyl]-amide]
pKi: 7.49

O=C(NCCS(=O)(=O)NC1CCN(c2ccncc2)CC1)c1ccc(Cl)s1 [Example 5, 5-Chloro-thiophene-2-carboxylic acid [2-(3,4,5,6-tetrahydro-2H-[1,4′]bipyridinyl-4-ylsulfamoyl)-ethyl]-amide]
pKi: 7.18

CC(C)N1CCC(N(C)S(=O)(=O)CCNC(=O)c2ccc(Cl)s2)CC1 [Example 3, 5-Chloro-thiophene-2-carboxylic acid {2-[(1-isopropyl-piperidin-4-yl)-methyl-sulfamoyl]-ethyl}-amide]
pKi: 8.15

CC(C)N1CC(NS(=O)(=O)CCNC(=O)c2ccc(Cl)s2)C1 [Example 7, 5-Chloro-thiophene-2-carboxylic acid [2-(1-isopropyl-azetidin-3-ylsulfamoyl)-ethyl]-amide]
pKi: 5.14

CC(C)N1CCC(NS(=O)(=O)CCNC(=O)c2ccc(Cl)cn2)CC1 [Example 13, 5-Chloro-pyridine-2-carboxylic acid [2-(1-isopropyl-piperidin-4-ylsulfamoyl)-ethyl]-amide]
pKi: 5.35

CC(C)N1CCC(N(CC(=O)N(C)C)S(=O)(=O)CCNC(=O)c2ccc(Cl)s2)CC1 [Example 18, 5-Chloro-thiophene-2-carboxylic acid {2-[dimethylcarbamoylmethyl-(1-isopropyl-piperidin-4-yl)-sulfamoyl]-ethyl}-amide]
pKi: 8.30

CC(C)N1CCC(N(CC(F)(F)F)S(=O)(=O)CCNC(=O)c2ccc(Cl)s2)CC1 [Example 4, 5-Chloro-thiophene-2-carboxylic acid {2-[(1-isopropyl-piperidin-4-yl)-(2,2,2-trifluoro-ethyl)-sulfamoyl]-ethyl}-amide]
pKi: 7.82

CC(C)N1CCC(N(CCCO)S(=O)(=O)CCNC(=O)c2ccc(Cl)s2)CC1 [Example 17, 5-Chloro-thiophene-2-carboxylic acid {2-[(3-hydroxy-propyl)-(1-isopropyl-piperidin-4-yl)-sulfamoyl]-ethyl}-amide]
pKi: 8.40

CC(C)N1CCC(N(CC(=O)N2CCOCC2)S(=O)(=O)CCNC(=O)c2ccc(Cl)s2)CC1 [Example 19, 5-Chloro-thiophene-2-carboxylic acid {2-[(1-isopropyl-piperidin-4-yl)-(2-morpholin-4-yl-2-oxo-ethyl)-sulfamoyl]-ethyl}-amide]
pKi: 8.30

CC(C)N1CCC(NS(=O)(=O)CCNC(=O)c2ccc(Cl)s2)CC1 [Example 1, 5-Chloro-thiophene-2-carboxylic acid [2-(1-isopropyl-piperidin-4-ylsulfamoyl)-ethyl]-amide]
pKi: 8.00
